Data taken from PubChem BioAssay (NCI).
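The compound was tested at five concentrations on cells cultured in 96-well plates, with a 48-hour exposure period. At the GI50, growth is halved. TGI: concentration producing complete growth inhibition.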

tested on: SK-MEL-5 melanoma; assay: NCI anticancer screen, dose series, 48 h

`Cc1ccc(S(=O)(=O)NC(=O)NNc2ccc(F)cc2)cc1` and `NS(=O)(=O)c1ccc(NC(NC(=O)C(C(F)(F)F)C(F)(F)F)(C(F)(F)F)C(F)(F)F)cc1` cannot be ordered by TGI: greater than 100 µM for the first, greater than 100 µM for the second.

Going from `CCN(CC)CCNc1ccc2ncn3c4cc(OC)c(OC)c(=O)c4c(O)c1c23` to `CCc1nc2cc3cccnc3c(Cl)c2[nH]c1=O`, the TGI rises from 29.8 µM to greater than 100 µM.

`CC(C)(C)C(=O)C(Cc1ccccc1)C(=O)C(C)(C)C` and `COc1ccc(-c2csc(NC(=O)CSc3nc(C)c(-c4ccccc4)n3Nc3ccccc3)n2)cc1` cannot be ordered by TGI: greater than 100 µM for the first, greater than 100 µM for the second.

Going from `Clc1ccc(Cl)c(SCCCN2CCNCC2)c1` to `O=C1CCc2ccc3c(c21)CC1(Cc2ccccc2C1)C3`, the TGI falls from 33.1 µM to 11.4 µM (2.9-fold).

For `COc1ccc(-c2csc(NC(=O)CSc3nc(C)c(-c4ccccc4)n3Nc3ccccc3)n2)cc1`, the GI50 was 4.45 µM.

tested on: NCI-H460 lung; assay: NCI anticancer screen, dose series, 48 h

Going from `Nc1nc(Nc2ccccc2)sc1C(=O)c1c[nH]c2ccccc12` to `COc1ccc(-c2csc(NC(=O)CSc3nc(C)c(-c4ccccc4)n3Nc3ccccc3)n2)cc1`, the TGI rises from 13.6 µM to greater than 100 µM.

First: COc1c(O)c(O)cc2c1-c1ccc(OC)c(=O)cc1C(NC(C)=O)CC2 (stereo not given)
Second: CCN(CC)CCNc1ccc2ncn3c4cc(OC)c(OC)c(=O)c4c(O)c1c23
The TGI of the first is 3.3-fold higher: 50.9 µM for the first, 15.6 µM for the second.

Compared with `Cn1ccnc1Sc1ccc(C=Nc2ccc3nc(SCC(=O)NC4CCCCC4)sc3c2)cc1[N+](=O)[O-]`, `OC1(c2ccc(Cl)cc2)c2ccc(CN3CCCC3)cc2C2=NCCN21` (stereo not given) is lower in TGI: greater than 100 µM for the first, 29.1 µM for the second.

`N#CCCN(CCC#N)c1ccc(/C=C2\SC(=S)NC2=O)cc1Br` and `CCc1nc2cc3cccnc3c(Cl)c2[nH]c1=O` cannot be ordered by TGI: greater than 100 µM for the first, greater than 100 µM for the second.

Going from `C=C1C(=O)OC2/C=C(/C)C3(O)OC(C)(CC(OC(=O)C(C)C)C12)CC3OC(C)=O` (stereo not given) to `CC(C)(C)C(=O)C(Cc1ccccc1)C(=O)C(C)(C)C`, the TGI rises from 25 µM to greater than 100 µM.

Compared with `O=C(O)c1ccc2c(c1)CC1(C2)Cc2cc3c(cc2C1=O)CCC3` (stereo not given), `O=C1CCc2ccc3c(c21)CC1(Cc2ccccc2C1)C3` is lower in TGI: greater than 100 µM for the first, 20.6 µM for the second.

Compared with `CC1C(c2ccc3c(c2)OCO3)c2cc3c(cc2OC1N1CCOCC1)OCO3` (stereo not given), `Clc1ccc(Cl)c(SCCCN2CCNCC2)c1` is lower in TGI: greater than 80.1 µM for the first, 42.1 µM for the second.

`O=c1n(Cc2ccccc2)c(=O)n2c(=O)n(Cc3ccccc3)c(=O)n12` and `Cc1ccc(S(=O)(=O)NC(=O)NNc2ccc(F)cc2)cc1` cannot be ordered by TGI: greater than 100 µM for the first, greater than 100 µM for the second.

With `NS(=O)(=O)c1ccc(NC(NC(=O)C(C(F)(F)F)C(F)(F)F)(C(F)(F)F)C(F)(F)F)cc1` the TGI was greater than 100 µM.

In the case of `COc1ccc(-c2csc(NC(=O)CSc3nc(C)c(-c4ccccc4)n3Nc3ccccc3)n2)cc1`, the GI50 is reported as 7.41 µM.

tested on: SK-OV-3 ovarian; assay: NCI anticancer screen, dose series, 48 h

First: Nc1nc(Nc2ccccc2)sc1C(=O)c1c[nH]c2ccccc12
Second: COc1ccc(-c2csc(NC(=O)CSc3nc(C)c(-c4ccccc4)n3Nc3ccccc3)n2)cc1
The TGI of the first is lower: 32.8 µM for the first, greater than 100 µM for the second.

`COc1c(O)c(O)cc2c1-c1ccc(OC)c(=O)cc1C(NC(C)=O)CC2` (stereo not given) and `CCN(CC)CCNc1ccc2ncn3c4cc(OC)c(OC)c(=O)c4c(O)c1c23` are within 1.5-fold of each other in TGI: 32.9 µM for the first, 28.8 µM for the second.

Compared with `Cn1ccnc1Sc1ccc(C=Nc2ccc3nc(SCC(=O)NC4CCCCC4)sc3c2)cc1[N+](=O)[O-]`, `OC1(c2ccc(Cl)cc2)c2ccc(CN3CCCC3)cc2C2=NCCN21` (stereo not given) is 2.1-fold lower in TGI: 58.4 µM for the first, 27.3 µM for the second.

`N#CCCN(CCC#N)c1ccc(/C=C2\SC(=S)NC2=O)cc1Br` and `CCc1nc2cc3cccnc3c(Cl)c2[nH]c1=O` cannot be ordered by TGI: greater than 100 µM for the first, greater than 100 µM for the second.

Going from `C=C1C(=O)OC2/C=C(/C)C3(O)OC(C)(CC(OC(=O)C(C)C)C12)CC3OC(C)=O` (stereo not given) to `CC(C)(C)C(=O)C(Cc1ccccc1)C(=O)C(C)(C)C`, the TGI rises from 26.1 µM to greater than 100 µM.

`O=C(O)c1ccc2c(c1)CC1(C2)Cc2cc3c(cc2C1=O)CCC3` (stereo not given) and `O=C1CCc2ccc3c(c21)CC1(Cc2ccccc2C1)C3` cannot be ordered by TGI: greater than 100 µM for the first, greater than 100 µM for the second.

Going from `CC1C(c2ccc3c(c2)OCO3)c2cc3c(cc2OC1N1CCOCC1)OCO3` (stereo not given) to `Clc1ccc(Cl)c(SCCCN2CCNCC2)c1`, the TGI falls from greater than 100 µM to 32 µM.

`O=c1n(Cc2ccccc2)c(=O)n2c(=O)n(Cc3ccccc3)c(=O)n12` and `Cc1ccc(S(=O)(=O)NC(=O)NNc2ccc(F)cc2)cc1` cannot be ordered by TGI: greater than 100 µM for the first, greater than 100 µM for the second.

`NS(=O)(=O)c1ccc(NC(NC(=O)C(C(F)(F)F)C(F)(F)F)(C(F)(F)F)C(F)(F)F)cc1` showed a TGI greater than 100 µM.

Molecule `COc1ccc(-c2csc(NC(=O)CSc3nc(C)c(-c4ccccc4)n3Nc3ccccc3)n2)cc1` has a GI50 greater than 100 µM.
